In experiment [1] the target is T1, recombinant human ALK5 (TGF-βR1) protein (Homo sapiens, UniProt P36897).
T1 construct: purchased Life Technologies PR9075A
T1 sequence (P36897 34-503): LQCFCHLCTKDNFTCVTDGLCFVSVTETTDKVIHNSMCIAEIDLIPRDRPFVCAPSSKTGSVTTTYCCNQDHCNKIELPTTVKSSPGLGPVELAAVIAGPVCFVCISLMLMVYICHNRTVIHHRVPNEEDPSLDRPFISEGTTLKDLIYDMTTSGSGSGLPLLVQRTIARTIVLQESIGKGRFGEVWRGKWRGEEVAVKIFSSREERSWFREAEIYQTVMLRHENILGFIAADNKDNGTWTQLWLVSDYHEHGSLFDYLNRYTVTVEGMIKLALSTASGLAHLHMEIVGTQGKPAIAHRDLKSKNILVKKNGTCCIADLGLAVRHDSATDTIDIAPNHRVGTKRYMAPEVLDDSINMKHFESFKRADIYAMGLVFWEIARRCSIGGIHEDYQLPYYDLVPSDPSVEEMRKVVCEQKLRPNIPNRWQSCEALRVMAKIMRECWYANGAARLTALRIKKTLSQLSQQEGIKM
The experiment is described as follows: Biochemical ALK5 (TGF-βR1) assay to measure pKi (LANCE Ultra ULight kinase assay). The conditions noted are these: apparent pKi, converted from pIC50 by Cheng-Prusoff. On the procedure:
The assays were performed in a 384-well plate (24 columns×16 wells/rows). An Echo®550 Liquid Handler (Labcyte) was used to prepare various intermediate concentrations of compounds of the present disclosure in 100% DMSO. From the intermediate concentrations, a range of concentrations (from […] to 25 μM corresponding to volumes up to 105 nL) were prepared and ejected into a final assay plate to be used to create individual dose response curves for each of the subject compounds. To a separate column within the assay plate, 105 nL of DMSO in each well was used to establish a maximum assay signal. Additionally, 105 nL of 100 μM SD-208, a selective TGF-βR1 inhibitor (Catalog #S7624, Selleck Chemicals), was used in another column of wells to establish a minimal assay signal.
With a multidrop dispenser, 8 μL of enzyme mixture (1.25× final) was added to each well. […] The plate was then sealed with an adhesive seal and allowed to equilibrate for 60 minutes at room temperature.
Next, 2 μL of 125 μM ATP (5×final, 125 μM ATP prepared in assay buffer with 2 mM DTT) was added to the incubated mixtures, covered with a MicroClime® Environmental Lid (Product No. LLS-0310, Labcyte) and immediately transferred to 37° C. The reactions were allowed to proceed at 37° C. for 60 minutes before terminating with the addition of 10 μL of detection antibody (LANCE® (lanthanide chelate excite) Ultra Europium-anti-phospo-DNA Topoisomerase 2-alpha (Thr1342)) in detection mixture (12 mM EDTA, 4 nM detection antibody prepared in detection buffer (50 mM Tris-HCl, 150 mM NaCl, 0.5% BSA (Fraction V), pH 7.0)) at room temperature. The plate was then read on a Perkin Elmer EnVision Plate Reader using europium specific reader settings with excitation and emission wavelengths set to 320 or 340 nm and 665 nm, respectively.
For dose-response analyses, percent inhibition versus compound concentrations were plotted, and pIC50 values were determined from a 4-parameter robust fit model with GraphPad Prism V5 Software (GraphPad Software, Inc., La Jolla, CA). This model obtains pIC50 values by fitting the sigmoidal dose-response (variable slope) equation to the data. Results were expressed as pIC50 (negative logarithm of IC50) and subsequently converted to pKi (negative logarithm of dissociate constant, Ki) using the Cheng-Prusoff equation. The higher the value of pKi (lower value of Ki), the greater the inhibition of ALK5 activity.
On the technique in general: Time-resolved FRET reads energy transfer from a long-lived donor to a nearby acceptor.

The subject of experiment [2] is TGF-β-stimulated SMAD3 phosphorylation in BEAS-2B cells. The experiment is described as follows: Cellular ALK5 potency assay, inhibition of TGF-β stimulated pSMAD3 formation in BEAS-2B cells. The class given is cell-based. The conditions noted are these: Homo sapiens, pSMAD3, TGF-β 10 ng/mL, read-out: BEAS2B pIC50 (converted). On the procedure:
The potency of compounds of the present disclosure for inhibition of TGF-β-stimulated SMAD3 phosphorylation was measured in BEAS-2B cells, a human lung epithelial cell line. TGF-β signals through activin receptor-like kinase 5 (ALK5) immediately prior to SMAD3 phosphorylation.
BEAS-2B cells were grown using 50% DMEM (Life Technologies) and 50% F-12 (Life Technologies) media, supplemented with 10% Fetal Bovine Serum (ATCC), 25 mM HEPES (Life Technologies), and 1×Pen-Strep (Life Technologies). Cells were cultured in a humidified incubator set at 37° C., 5% CO2, and trypsonized using 0.25% Trypsin with 0.5% polyvinylpyrrolidone (PVP).
For the assay, BEAS-2B cells were seeded at 7,500 cells/well (25 μL/well) in a 384-well plate and cultured overnight. Before dosing, growth media was aspirated and the wells were rinsed with HBSS Buffer (HBSS with Calcium and Magnesium, Life Technologies) supplemented with 25 mM HEPES (Life Technologies) and 1% Bovine Serum Albumin (Roche). Compounds were serially diluted in DMSO, then further diluted with supplemented HBSS Buffer (50 μL/well) to create a compound plate 3× of the final assay concentration, at 0.3% DMSO. The diluted compounds were then added to the cells (8 μL/well) and incubated at 37° C., 5% CO2 for 1 hour. After the compound incubation, TGF-β (R&D Systems) reconstituted in supplemented HBSS Buffer was added to the cells ([…], final concentration 10 ng/mL) and incubated for a further 30 minutes, after which the cells were immediately lysed with AlphaLISA lysis buffer (PerkinElmer). AlphaLISA Acceptor and Detector beads (PerkinElmer) were added 2 hours apart, then incubated overnight to be read the next day. The potency of the compound was determined through analysis of dose-dependent quantified changes in pSMAD3 signal from baseline (non-compound treated TGF-β stimulated cells). Data are expressed as pIC50 (negative decadic logarithm IC50) values.

Where only a bound is given, the exact number is not on record here.

Here are results for 19 compounds from US20230399312A1, “SUBSTITUTED PYRIMIDINES AND METHODS OF USE” (THERAVANCE BIOPHARMA R&D IP, LLC, priority 2020, published 2023).

As to `Cc1cccc(-c2nccc(Nc3ccnc(Nc4ccc5c(c4)CC(N)C5)n3)n2)n1` (stereo not drawn) [Compound 524, N2-(2-aminoindan-5-yl)-N4-[2-(6-methyl-2-pyridyl)pyrimidin-4-yl]pyrimidine-2,4-diamine], the Ki in experiment [1] was 0.0398 to 0.316 nM. In addition, the IC50 in experiment [2] is 25.1 to 158 nM.
On the same counts, the results for `Cc1cccc(-c2nccc(Nc3ccnc(Nc4ccc(F)c(CO)c4)n3)n2)n1` [Compound 294, [2-fluoro-5-[[4-[[2-(6-methyl-2-pyridyl)pyrimidin-4-yl]amino]pyrimidin-2-yl]amino]phenyl]methanol] are 0.0398 to 0.316 nM and no more than 20 nM.
The corresponding values for `Cc1cccc(-c2nccc(Nc3ccnc(Nc4ccc(S(=O)(=O)N5CCN(C(=O)NC(C)C)CC5)cc4)n3)n2)n1` [Compound 107, N-isopropyl-4-[4-[[4-[[2-(6-methyl-2-pyridyl)pyrimidin-4-yl]amino]pyrimidin-2-yl]amino]phenyl]sulfonyl-piperazine-1-carboxamide] are 0.398 to 3.16 nM and 200 to 1260 nM.
The corresponding values for `Cc1cccc(-c2nccc(Nc3ccnc(Nc4cc(C(=O)O[C@@H]5CCNC5)ccn4)n3)n2)n1` [Compound 601, [(3R)-pyrrolidin-3-yl] 2-[[4-[[2-(6-methyl-2-pyridyl)pyrimidin-4-yl]amino]pyrimidin-2-yl]amino]pyridine-4-carboxylate] are 3.98 to 31.6 nM and 200 to 1260 nM.
For the compound `Cc1cccc(-c2nccc(Nc3ccnc(Nc4ccc(CN5CCCC(C(=O)OC6CCNCC6)C5)cc4)n3)n2)n1` (stereo not drawn) [Compound 383, 4-piperidyl 1-[[4-[[4-[[2-(6-methyl-2-pyridyl)pyrimidin-4-yl]amino]pyrimidin-2-yl]amino]phenyl]methyl] piperidine-3-carboxylate], the Ki in experiment [1] was 0.0398 to 0.316 nM. For the same compound, the IC50 in experiment [2] was 25.1 to 158 nM.
In the case of `Cc1cccc(-c2nc(Nc3ccnc(Nc4ccc(NC(=O)C5CCNCC5)cc4)n3)c3cccn3n2)n1` [Compound 1028, N-[4-[[4-[[2-(6-methyl-2-pyridyl)pyrrolo[2,1-f][1,2,4]triazin-4-yl]amino]pyrimidin-2-yl]amino]phenyl]piperidine-4-carboxamide], the Ki in experiment [1] is 0.0398 to 0.316 nM. For the same compound, the IC50 in experiment [2] was 25.1 to 158 nM.
On the same counts, the results for `COc1cc(Nc2nccc(Nc3ccnc(-c4cccc(C)n4)n3)n2)ccc1NC(=O)C1CCNCC1` [Compound 511, N-[2-methoxy-4-[[4-[[2-(6-methyl-2-pyridyl)pyrimidin-4-yl]amino]pyrimidin-2-yl]amino]phenyl]piperidine-4-carboxamide] are 0.398 to 3.16 nM and 25.1 to 158 nM.
On the same counts, the results for `Fc1cc(F)c(-c2ncc(C3CC3)c(Nc3ccnc(Nc4ccc(N5CCNCC5)cc4)n3)n2)cc1Cl` [Compound 540, N4-[2-(5-chloro-2,4-difluoro-phenyl)-5-cyclopropyl-pyrimidin-4-yl]-N2-(4-piperazin-1-ylphenyl)pyrimidine-2,4-diamine] are 0.0398 to 0.316 nM and 1580 to 10000 nM.
As to `Cc1cccc(-c2nccc(Nc3ccnc(Nc4ccc(N5CCNC(C)C5)cc4)n3)n2)n1` (racemic) [Compound 528, N4-[2-(6-methyl-2-pyridyl)pyrimidin-4-yl]-N2-[4-[rac-(3S)-3-methylpiperazin-1-yl]phenyl]pyrimidine-2,4-diamine], the Ki in experiment [1] was 0.0398 to 0.316 nM.
Turning to `COC(=O)c1ccc(Nc2nccc(Nc3nc(-c4cccc(C)n4)ncc3C(=O)OC)n2)cc1` [Compound 1043, methyl 4-[[2-(4-methoxycarbonylanilino)pyrimidin-4-yl]amino]-2-(6-methyl-2-pyridyl)pyrimidine-5-carboxylate], the Ki in experiment [1] is 3.98 to 31.6 nM.
In the case of `Cc1cccc(-c2nccc(Nc3ccnc(Nc4ccc(N5CCNC(C)C5)cc4)n3)n2)n1` (racemic) [Compound 7, N4-[2-(6-methyl-2-pyridyl)pyrimidin-4-yl]-N2-[4-[rac-(3R)-3-methylpiperazin-1-yl]phenyl]pyrimidine-2,4-diamine], in experiment [2], the IC50 is 25.1 to 158 nM.
`COC(=O)c1ccc(Nc2nccc(Nc3nc(-c4cccc(C)n4)ncc3C(=O)OC)n2)cc1` [Compound 468, methyl 4-[[2-(4-methoxycarbonylanilino)pyrimidin-4-yl]amino]-2-(6-methyl-2-pyridyl) pyrimidine-5-carboxylate]: the IC50 in experiment [2] was 200 to 1260 nM.
Take `Cc1cccc(-c2ncc(C(=O)O)c(Nc3ccnc(Nc4ccc(N)cc4)n3)n2)n1` [Compound 1044, 4-[[2-(4-aminoanilino)pyrimidin-4-yl]amino]-2-(6-methyl-2-pyridyl)pyrimidine-5-carboxylic acid]: the Ki in experiment [1] is 0.398 to 3.16 nM.
For the compound `Cc1cccc(-c2nccc(Nc3ccnc(Nc4ccc(CN5CC[C@@H](O)C5)cc4)n3)n2)n1` [Compound 319, (3R)-1-[[4-[[4-[[2-(6-methyl-2-pyridyl)pyrimidin-4-yl]amino]pyrimidin-2-yl]amino]phenyl]methyl] pyrrolidin-3-ol], the Ki in experiment [1] was no more than 0.0316 nM.
The same measure, in the same setting: the result for `CNC(=O)Cc1cc(Nc2ccnc(Nc3ccc(N4CCNCC4)cc3)n2)nc(-c2cccc(C)n2)n1` [Compound 1008, N-methyl-2-[2-(6-methyl-2-pyridyl)-6-[[2-(4-piperazin-1-ylanilino)pyrimidin-4-yl]amino]pyrimidin-4-yl] acetamide] reads 3.98 to 31.6 nM; that for `Cc1cccc(-c2nccc(Nc3ccnc(Nc4ncc(N5CCNCC5)s4)n3)n2)n1` [Compound 640, N4-[2-(6-methyl-2-pyridyl)pyrimidin-4-yl]-N2-(5-piperazin-1-ylthiazol-2-yl)pyrimidine-2,4-diamine], 3.98 to 31.6 nM; that for `Cc1cccc(-c2nccc(Nc3ccnc(Nc4ccc(CN5CC(CO)C5)cc4)n3)n2)n1` [Compound 266, [1-[[4-[[4-[[2-(6-methyl-2-pyridyl)pyrimidin-4-yl]amino]pyrimidin-2-yl]amino]phenyl]methyl]azetidin-3-yl]methanol], 0.0398 to 0.316 nM.
With `CNC(=O)Cc1cc(Nc2ccnc(Nc3ccc(N4CCNCC4)cc3)n2)nc(-c2cccc(C)n2)n1` [Compound 309, N-methyl-2-[2-(6-methyl-2-pyridyl)-6-[[2-(4-piperazin-1-ylanilino)pyrimidin-4-yl]amino]pyrimidin-4-yl]acetamide], the IC50 in experiment [2] is 200 to 1260 nM.
On the same count and under the same terms, as for `Cc1cccc(-c2ncc(C(=O)O)c(Nc3ccnc(Nc4ccc(N)cc4)n3)n2)n1` [Compound 26, 4-[[2-(4-aminoanilino)pyrimidin-4-yl]amino]-2-(6-methyl-2-pyridyl)pyrimidine-5-carboxylic acid], the figure is 1580 to 10000 nM.
